# Assay results reported in article PMC7377239, “Cardiovascular Effects of Polychlorinated Biphenyls and Their Major Metabolites” (Environmental Health Perspectives, 2020).
# Counter-ions that a name gives are not always drawn. Like-named read-outs stand apart in the source and are kept apart here.
# Tests used:
# [1] = system: porcine pulmonary artery–derived EC; set-up: method as in Hennig et al. 2002, 2005; Toborek et al. 1995; details: ref Hennig et al. 2002, 2005, Toborek et al. 1995; cited from earlier work
# [2] = system: iCell cardiomyocytes (human iPSC-derived cardiomyocytes); experiment: Intracellular Ca2+ flux / beating parameters in iCell cardiomyocytes (FLIPR tetra), 90 min or 24 h; type: cell-based; details: for activity at 0.01 µM / activity at 0.1 µM / activity at 1 µM / activity at 10 µM / activity at 100 µM: Homo sapiens, Cardiomyocyte, 0.00 µM = 100.00; for activity at 0.1 µM: 0.10 µM
# Method in brief: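 PODs were defined as the concentration crossing one SD of the vehicle-control means (0.5% DMSO) on four-parameter logistic fits of Ca2+ trace metrics (peak height, frequency, peak-spacing CV, decay/rise ratio). Traces came from 100 s, 8 Hz FLIPR reads at 37 °C on calcium-dye-loaded iCell cardiomyocytes. Before reading, cells were treated for 90 min or 24 h from 5× chemical plates spanning 0.05–500 µM, in triplicate.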
# [3] = 1.5 h, read-out: cm.amp.avg.90min
# [4] = 1.5 h, read-out: cm.amp.cv.90min
# [5] = 1.5 h, read-out: cm.decay.rise.90min
# [6] = 1.5 h, read-out: cm.spacing.cv.90min
# [7] = 24 h, read-out: cm.amp.avg.24hrs
# [8] = 24 h, read-out: cm.amp.cv.24hrs
# [9] = 24 h, read-out: cm.decay.rise.24hrs
# [10] = 24 h, read-out: cm.spacing.cv.24hrs
compound,measurement,setting,value
"Clc1cc(Cl)c(-c2cc(Cl)c(Cl)cc2Cl)cc1Cl [PCB 153, 2,2′,4,4′,5,5′-hexachlorobiphenyl]",EC toxicity,[1],much less potent
Oc1ccccc1-c1ccc(Cl)cc1 [2'-OH PCB3],activity at 0.01 µM,[2]; [3],95.7%
same,activity at 0.01 µM,[2]; [4],112%
same,activity at 0.01 µM,"[2]; 1.5 h, read-out: cm.bpm.90min",102%
same,activity at 0.01 µM,[2]; [5],98.2%
same,activity at 0.01 µM,[2]; [6],143%
same,activity at 0.1 µM,[2]; [3],105%
same,activity at 0.1 µM,[2]; [4],96.5%
same,activity at 0.1 µM,"[2]; 1.5 h, read-out: cm.bpm.90min",102%
same,activity at 0.1 µM,[2]; [5],98.7%
same,activity at 0.1 µM,[2]; [6],110%
same,activity at 1 µM,[2]; [3],102%
same,activity at 1 µM,[2]; [4],116%
same,activity at 1 µM,"[2]; 1.5 h, read-out: cm.bpm.90min",104%
same,activity at 1 µM,[2]; [5],97.6%
same,activity at 1 µM,[2]; [6],106%
same,activity at 10 µM,[2]; [3],0%
same,activity at 10 µM,[2]; [4],0%
same,activity at 10 µM,"[2]; 1.5 h, read-out: cm.bpm.90min",0%
same,activity at 10 µM,[2]; [5],0%
same,activity at 10 µM,[2]; [6],0%
same,activity at 100 µM,[2]; [3],0%
same,activity at 100 µM,[2]; [4],0%
same,activity at 100 µM,"[2]; 1.5 h, read-out: cm.bpm.90min",0%
same,activity at 100 µM,[2]; [5],0%
same,activity at 100 µM,[2]; [6],0%
same,activity at 0.01 µM,[2]; [7],112%
same,activity at 0.01 µM,[2]; [8],138%
same,activity at 0.01 µM,"[2]; 24 h, read-out: cm.bpm.24hrs",118%
same,activity at 0.01 µM,[2]; [9],82.1%
same,activity at 0.01 µM,[2]; [10],120%
same,activity at 0.1 µM,[2]; [7],115%
same,activity at 0.1 µM,[2]; [8],126%
same,activity at 0.1 µM,"[2]; 24 h, read-out: cm.bpm.24hrs",116%
same,activity at 0.1 µM,[2]; [9],92.5%
same,activity at 0.1 µM,[2]; [10],111%
same,activity at 1 µM,[2]; [7],124%
same,activity at 1 µM,[2]; [8],94.2%
same,activity at 1 µM,"[2]; 24 h, read-out: cm.bpm.24hrs",95.5%
same,activity at 1 µM,[2]; [9],112%
same,activity at 1 µM,[2]; [10],106%
same,activity at 10 µM,[2]; [7],104%
same,activity at 10 µM,[2]; [8],140%
same,activity at 10 µM,"[2]; 24 h, read-out: cm.bpm.24hrs",121%
same,activity at 10 µM,[2]; [9],82.7%
same,activity at 10 µM,[2]; [10],111%
same,activity at 100 µM,[2]; [7],0%
same,activity at 100 µM,[2]; [8],0%
same,activity at 100 µM,"[2]; 24 h, read-out: cm.bpm.24hrs",0%
same,activity at 100 µM,[2]; [9],0%
same,activity at 100 µM,[2]; [10],0%
O=S(=O)(O)Oc1ccc(-c2cccc(Cl)c2)cc1Cl [4-yl PCB 11 sulfate],activity at 0.01 µM,[2]; [3],98.2%
same,activity at 0.01 µM,[2]; [4],88.2%
same,activity at 0.01 µM,"[2]; 1.5 h, read-out: cm.bpm.90min",97.8%
same,activity at 0.01 µM,[2]; [5],98.1%
same,activity at 0.01 µM,[2]; [6],99.6%
same,activity at 0.1 µM,[2]; [3],93.1%
same,activity at 0.1 µM,[2]; [4],97.2%
same,activity at 0.1 µM,"[2]; 1.5 h, read-out: cm.bpm.90min",100%
same,activity at 0.1 µM,[2]; [5],102%
same,activity at 0.1 µM,[2]; [6],99%
same,activity at 1 µM,[2]; [3],99.5%
same,activity at 1 µM,[2]; [4],116%
same,activity at 1 µM,"[2]; 1.5 h, read-out: cm.bpm.90min",99.1%
same,activity at 1 µM,[2]; [5],99.7%
same,activity at 1 µM,[2]; [6],103%
same,activity at 10 µM,[2]; [3],96.9%
same,activity at 10 µM,[2]; [4],93.4%
same,activity at 10 µM,"[2]; 1.5 h, read-out: cm.bpm.90min",99.1%
same,activity at 10 µM,[2]; [5],98.1%
same,activity at 10 µM,[2]; [6],96.5%
same,activity at 100 µM,[2]; [3],45.7%
same,activity at 100 µM,[2]; [4],62.5%
same,activity at 100 µM,"[2]; 1.5 h, read-out: cm.bpm.90min",15.1%
same,activity at 100 µM,[2]; [5],39.8%
same,activity at 100 µM,[2]; [6],107%
same,activity at 0.01 µM,[2]; [7],98.1%
same,activity at 0.01 µM,[2]; [8],94.2%
same,activity at 0.01 µM,"[2]; 24 h, read-out: cm.bpm.24hrs",97.4%
same,activity at 0.01 µM,[2]; [9],110%
same,activity at 0.01 µM,[2]; [10],104%
same,activity at 0.1 µM,[2]; [7],78.9%
same,activity at 0.1 µM,[2]; [8],34.3%
same,activity at 0.1 µM,"[2]; 24 h, read-out: cm.bpm.24hrs",46.8%
same,activity at 0.1 µM,[2]; [9],51.8%
same,activity at 0.1 µM,[2]; [10],46.3%
same,activity at 1 µM,[2]; [7],88.9%
same,activity at 1 µM,[2]; [8],119%
same,activity at 1 µM,"[2]; 24 h, read-out: cm.bpm.24hrs",93.6%
same,activity at 1 µM,[2]; [9],100%
same,activity at 1 µM,[2]; [10],87.1%
same,activity at 10 µM,[2]; [7],88.7%
same,activity at 10 µM,[2]; [8],119%
same,activity at 10 µM,"[2]; 24 h, read-out: cm.bpm.24hrs",93.6%
same,activity at 10 µM,[2]; [9],104%
same,activity at 10 µM,[2]; [10],98.9%
same,activity at 100 µM,[2]; [7],0%
same,activity at 100 µM,[2]; [8],0%
same,activity at 100 µM,"[2]; 24 h, read-out: cm.bpm.24hrs",0%
same,activity at 100 µM,[2]; [9],0%
same,activity at 100 µM,[2]; [10],0%
"Oc1ccc(O)c(-c2ccc(Cl)cc2)c1 [2',5'-DiOH PCB3]",activity at 0.01 µM,[2]; [3],102%
same,activity at 0.01 µM,[2]; [4],90%
same,activity at 0.01 µM,"[2]; 1.5 h, read-out: cm.bpm.90min",99.1%
same,activity at 0.01 µM,[2]; [5],97.4%
same,activity at 0.01 µM,[2]; [6],113%
same,activity at 0.1 µM,[2]; [3],105%
same,activity at 0.1 µM,[2]; [4],110%
same,activity at 0.1 µM,"[2]; 1.5 h, read-out: cm.bpm.90min",100%
same,activity at 0.1 µM,[2]; [5],95.6%
same,activity at 0.1 µM,[2]; [6],94%
same,activity at 1 µM,[2]; [3],106%
same,activity at 1 µM,[2]; [4],93.3%
same,activity at 1 µM,"[2]; 1.5 h, read-out: cm.bpm.90min",92.8%
same,activity at 1 µM,[2]; [5],98.3%
same,activity at 1 µM,[2]; [6],107%
same,activity at 10 µM,[2]; [3],110%
same,activity at 10 µM,[2]; [4],112%
same,activity at 10 µM,"[2]; 1.5 h, read-out: cm.bpm.90min",104%
same,activity at 10 µM,[2]; [5],105%
same,activity at 10 µM,[2]; [6],132%
same,activity at 100 µM,[2]; [3],9.07%
same,activity at 100 µM,[2]; [4],380%
same,activity at 100 µM,"[2]; 1.5 h, read-out: cm.bpm.90min",7.52%
same,activity at 100 µM,[2]; [5],21.5%
same,activity at 100 µM,[2]; [6],381%
same,activity at 0.01 µM,[2]; [7],161%
same,activity at 0.01 µM,[2]; [8],75.5%
same,activity at 0.01 µM,"[2]; 24 h, read-out: cm.bpm.24hrs",105%
same,activity at 0.01 µM,[2]; [9],98.5%
same,activity at 0.01 µM,[2]; [10],110%
same,activity at 0.1 µM,[2]; [7],147%
same,activity at 0.1 µM,[2]; [8],75%
same,activity at 0.1 µM,"[2]; 24 h, read-out: cm.bpm.24hrs",100%
same,activity at 0.1 µM,[2]; [9],101%
same,activity at 0.1 µM,[2]; [10],93.3%
same,activity at 1 µM,[2]; [7],141%
same,activity at 1 µM,[2]; [8],69.9%
same,activity at 1 µM,"[2]; 24 h, read-out: cm.bpm.24hrs",92.6%
same,activity at 1 µM,[2]; [9],109%
same,activity at 1 µM,[2]; [10],89%
same,activity at 10 µM,[2]; [7],0%
same,activity at 10 µM,[2]; [8],0%
same,activity at 10 µM,"[2]; 24 h, read-out: cm.bpm.24hrs",0%
same,activity at 10 µM,[2]; [9],0%
same,activity at 10 µM,[2]; [10],0%
same,activity at 100 µM,[2]; [7],0%
same,activity at 100 µM,[2]; [8],0%
same,activity at 100 µM,"[2]; 24 h, read-out: cm.bpm.24hrs",0%
same,activity at 100 µM,[2]; [9],0%
same,activity at 100 µM,[2]; [10],0%
Oc1cc(Cl)c(-c2cc(Cl)ccc2Cl)cc1Cl [4-OH-PCB 52],effect on Ca2+ flux,"[2]; iPSC-CM, 100 μM, because of loss of cell viability",complete block of Ca^2+ flux
